Laboratory results: patent US20260209228A1 (Elanco Tiergesundheit AG, priority 2018, published 2026)

Columns and labels:
[1] = system: D. immitis microfilariae; experiment: Dog heart worm microfilariae motility inhibition (Example A); type: cell-based; settings: read-out: EC50 (motility inhibition)
[2] = system: H. contortus (H.c.) larvae; experiment: Ruminant gastrointestinal H. contortus larvae motility inhibition (Example B); settings: Haemonchus contortus, read-out: EC50 (motility inhibition)
Protocol: H.c. eggs isolated from lamb fecal matter are allowed to hatch overnight. Test compounds are diluted in DMSO and added to a 96-well plate containing appropriate media. H.c. larvae are added to each well and plates are incubated for the desired time(s). Motility is assessed using an LCD camera imaging system. Percent motility inhibition values are generated relative to the average of the DMSO-only wells.

[3] = system: L. sigmodontis; experiment: L.s. model (Example E); settings: mice infected s.c. with L. sigmodontis larvae; oral gavage, dose between 1×3 mg/kg and 5×32 mg/kg; necropsy 5 weeks after infection
Protocol: Mice, injected subcutaneously with infective L. sigmodontis larvae, were subsequently treated with the test article formulated in eg DMSO/PEG 2/1, by oral gavage at a dose in a range between 1×3 mg/kg up to 5×32 mg/kg (one dose per day for 5 consecutive days). At necropsy 5 weeks after infection, efficacy is calculated by counting developed larvae vs. untreated animals using Abbot's formula.

[4] = system: H. contortus; experiment: Gastro intestinal nematodes jird model, H. contortus only (Example C); settings: jirds; H. contortus from stomach; oral, Day 6 after infection, dose between 1×3 mg/kg and 1×32 mg/kg; necropsy three days after treatment
Protocol: Jirds (Meriones unguiculatus), are artificially infected by gavage with third instar larvae each of T. colubriformis and H. contortus. Then treated orally with the test compound formulated in eg DMSO/PEG 2/1, on Day 6 after infection at a dose in a range between 1×3 mg/kg up to 1×32 mg/kg. Three days after treatment, gerbils are euthanized and dissected to recover H. contortus from stomach and T. colubriformis from the small intestine. Efficacy is expressed as a % reduction in worm numbers in comparison with a placebo treated group, using the Abbot's formula.

| SMILES | EC50 [1] [µg/mL] | EC50 [2] [µg/mL] | efficacy (developed larvae vs. untreated animals, Abbot's formula) [3] [%] | efficacy against He (% reduction in worm numbers vs placebo treated group, Abbot's formula) [4] [%] |
| --- | --- | --- | --- | --- |
| C[C@H]1COc2ccccc2[C@H]1NC(=O)c1cnc2c(-c3cc(Cl)cc(Cl)c3)nccc2c1N(C)C (racemic) [Example 1.39, 8-(3,5-dichlorophenyl)-4-(dimethylamino)-N-[rac-(3R,4S)-3-methylchroman-4-yl]-1,7-naphthyridine-3-carboxamide] | < 0.1 | < 1 | – | – |
| CN(C)c1c(C(=O)N[C@H]2CCOc3ccccc32)cnc2c(-c3cccc(Cl)c3Cl)nccc12 [Example 1.55, N-[(4S)-chroman-4-yl]-8-(2,3-dichlorophenyl)-4-(dimethylamino)-1,7-naphthyridine-3-carboxamide] | < 0.1 | < 1 | – | – |
| CN(C)c1c(C(=O)N[C@H]2CCOc3cc(F)ccc32)cnc2c(-c3cc(Cl)cc(Cl)c3)nccc12 [Example 1.17, 8-(3,5-dichlorophenyl)-4-(dimethylamino)-N-[(4S)-7-fluorochroman-4-yl]-1,7-naphthyridine-3-carboxamide] | < 0.1 | < 1 | – | – |
| O=C1CN(c2c(C(=O)N[C@H]3CCOc4ccccc43)cnc3c(-c4cc(Cl)cc(Cl)c4)nccc23)CN1 [Example 1.37, N-[(4S)-chroman-4-yl]-8-(3,5-dichlorophenyl)-4-(4-oxoimidazolidin-1-yl)-1,7-naphthyridine-3-carboxamide] | < 0.1 | < 1 | – | – |
| CN(C)c1c(C(=O)N[C@H]2CCc3ccccc32)cnc2c(-c3cc(Cl)cc(Cl)c3)nccc12 [Example 1.21, 8-(3,5-dichlorophenyl)-4-(dimethylamino)-N-[(1S)-indan-1-yl]-1,7-naphthyridine-3-carboxamide] | < 0.1 | < 1 | – | – |
| CN(C)c1c(C(=O)N[C@H]2CCOc3ccccc32)cnc2c(-c3cc(F)cc(F)c3)nccc12 [Example 1.48, N-[(4S)-chroman-4-yl]-8-(3,5-difluorophenyl)-4-(dimethylamino)-1,7-naphthyridine-3-carboxamide] | < 0.1 | < 1 | – | – |
| O=C(N[C@H]1CCOc2ccccc21)c1cnc2c(-c3cc(Cl)cc(Cl)c3)nccc2c1Cl [Example 1.30, 4-chloro-N-[(4S)-chroman-4-yl]-8-(3,5-dichlorophenyl)-1,7-naphthyridine-3-carboxamide] | < 0.1 | – | – | – |
| CN(C)c1c(C(=O)N[C@H]2CCOc3ccccc32)ccc2c(-c3cc(Cl)cc(Cl)c3)nccc12 [Example 4.1, N-[(4S)-chroman-4-yl]-1-(3,5-dichlorophenyl)-5-(dimethylamino)isoquinoline-6-carboxamide] | < 0.1 | < 1 | – | – |
| CN(C)c1c(C(=O)N[C@H]2CCOc3ccccc32)ccc2c(-c3cc(Cl)cc(Cl)c3)cncc12 [Example 7.1, N-[(4S)-Chroman-4-yl]-4-(3,5-dichlorophenyl)-8-(dimethylamino)isoquinoline-7-carboxamide] | < 0.1 | < 1 | – | – |
| CN(C)c1c(C(=O)N[C@H]2CCOc3ccccc32)cnc2c(N3CCc4cc(Cl)ccc43)nccc12 [Example 1.7, 8-(5-chloroindolin-1-yl)-N-[(4S)-chroman-4-yl]-4-(dimethylamino)-1,7-naphthyridine-3-carboxamide] | – | < 1 | – | – |
| CN(C)c1c(C(=O)N[C@H]2CCOc3ccccc32)cnc2c(-c3ccc(Cl)cc3Cl)nccc12 [Example 1.54, N-[(4S)-chroman-4-yl]-8-(2,4-dichlorophenyl)-4-(dimethylamino)-1,7-naphthyridine-3-carboxamide] | < 0.1 | < 1 | – | – |
| CN(C)c1c(C(=O)N[C@H]2CCOc3ccccc32)cnc2c(-c3cc(Cl)cc(Cl)c3)nccc12 [Example 1.1, N-[(4S)-chroman-4-yl]-8-(3,5-dichlorophenyl)-4-(dimethylamino)-1,7-naphthyridine-3-carboxamide] | < 0.1 | < 1 | – | – |
| CN(C)c1c(C(=O)N[C@H]2CCOc3ccccc32)cnc2c(-c3ccccc3F)nccc12 [Example 1.49, N-[(4S)-chroman-4-yl]-8-(2-fluorophenyl)-4-(dimethylamino)-1,7-naphthyridine-3-carboxamide] | < 0.1 | – | – | – |
| CN(C)c1c(C(=O)N[C@H]2CCOc3ccccc32)ccc2c(-c3cc(Cl)cc(Cl)c3)cccc12 [Example 5.1] | < 0.1 | < 1 | – | – |
| CN(C)c1c(C(=O)N[C@H]2CCOc3ccccc32)cnc2c(-n3ccc4cc(Cl)ccc43)nccc12 [Example 1.8] | < 0.1 | < 1 | > 70 | – |
| Nc1c(C(=O)N[C@H]2CCOc3ccccc32)cnc2c(-c3cc(Cl)cc(Cl)c3)nccc12 [Example 1.12, 4-amino-N-[(4S)-chroman-4-yl]-8-(3,5-dichlorophenyl)-1,7-naphthyridine-3-carboxamide] | < 0.1 | < 1 | – | – |

| SMILES | EC50 [1] [µg/mL] | EC50 [2] [µg/mL] | efficacy (developed larvae vs. untreated animals, Abbot's formula) [3] [%] | efficacy against He (% reduction in worm numbers vs placebo treated group, Abbot's formula) [4] [%] |
| --- | --- | --- | --- | --- |
| CC(C)c1c(C(=O)N[C@H]2CCOc3ccccc32)cnc2c(-c3cc(Cl)cc(Cl)c3)nccc12 [Example 1.42, N-[(4S)-chroman-4-yl]-8-(3,5-dichlorophenyl)-4-isopropyl-1,7-naphthyridine-3-carboxamide] | < 0.1 | < 1 | – | – |
| CON(C)c1c(C(=O)N[C@H]2CCOc3ccccc32)cnc2c(-c3cc(Cl)cc(Cl)c3)nccc12 [Example 1.31, N-[(4S)-chroman-4-yl]-8-(3,5-dichlorophenyl)-4-[methoxy(methyl)amino]-1,7-naphthyridine-3-carboxamide] | < 0.1 | < 1 | – | – |
| CN(C)c1c(C(=O)N[C@H]2CCOc3ccccc32)ncc2c(-c3cc(Cl)cc(Cl)c3)nccc12 [Example 3.1, N-[(4S)-chroman-4-yl]-8-(3,5-dichlorophenyl)-4-(dimethylamino)-2,7-naphthyridine-3-carboxamide] | – | < 1 | – | – |
| O=C(N[C@H]1CCOc2ccccc21)c1cnc2c(-c3cc(Cl)cc(Cl)c3)nccc2c1C1CC1 [Example 1.20, N-[(4S)-chroman-4-yl]-4-cyclopropyl-8-(3,5-dichlorophenyl)-1,7-naphthyridine-3-carboxamide] | < 0.1 | < 1 | – | – |
| CN(C)c1c(C(=O)N[C@H]2CCOc3ccccc32)cnc2c(-c3cc(C(F)(F)F)cc(C(F)(F)F)c3)nccc12 [Example 1.52, 8-[3,5-bis(trifluoromethyl)phenyl]-N-[(4S)-chroman-4-yl]-4-(dimethylamino)-1,7-naphthyridine-3-carboxamide] | < 0.1 | – | – | – |
| Cc1ccc2c(c1)OCC[C@@H]2NC(=O)c1cnc2c(-c3cc(Cl)cc(Cl)c3)nccc2c1N(C)C [Example 1.45, 8-(3,5-dichlorophenyl)-4-(dimethylamino)-N-[(4S)-7-methylchroman-4-yl]-1,7-naphthyridine-3-carboxamide] | < 0.1 | < 1 | – | – |
| COc1ccc(F)c(-c2nccc3c(N(C)C)c(C(=O)N[C@H]4CCOc5ccccc54)cnc23)c1F [Example 1.24, N-[(4S)-chroman-4-yl]-8-(2,6-difluoro-3-methoxyphenyl)-4-(dimethylamino)-1,7-naphthyridine-3-carboxamide] | < 0.1 | < 1 | – | – |
| CN(C)c1c(C(=O)N[C@H]2CCOc3ccccc32)ncc2c(-c3cc(Cl)cc(Cl)c3)cccc12 [Example 2.1, N-[(4S)-chroman-4-yl]-8-(3,5-dichlorophenyl)-4-(dimethylamino) isoquinoline-3-carboxamide] | < 0.1 | < 1 | – | – |
| CN(C)c1c(C(=O)N[C@H]2CCOc3ccccc32)ccc2c(-c3cc(Cl)cc(Cl)c3)ccnc12 [Example 6.1, N-[(4S)-Chroman-4-yl]-4-(3,5-dichlorophenyl)-8-(dimethylamino)quinoline-7-carboxamide] | < 0.1 | < 1 | – | – |
| COc1c(C(=O)N[C@H]2CCOc3ccccc32)cnc2c(-c3cc(Cl)cc(Cl)c3)nccc12 [Example 1.33, N-[(4S)-chroman-4-yl]-8-(3,5-dichlorophenyl)-4-methoxy-1,7-naphthyridine-3-carboxamide] | < 0.1 | < 1 | – | – |
| CN(C)c1c(C(=O)N[C@H]2CCCc3ccccc32)cnc2c(-c3cc(Cl)cc(Cl)c3)nccc12 [Example 1.32, 8-(3,5-dichlorophenyl)-4-(dimethylamino)-N-[(1S)-tetralin-1-yl]-1,7-naphthyridine-3-carboxamide] | < 0.1 | < 1 | – | – |
| CN(C)c1c(C(=O)N[C@H]2CCOc3ccccc32)cnc2c(-c3cc(F)c(F)c(F)c3)nccc12 [Example 1.51, N-[(4S)-chroman-4-yl]-4-(dimethylamino)-8-(3,4,5-trifluorophenyl)-1,7-naphthyridine-3-carboxamide] | < 0.1 | < 1 | – | – |
| O=C(N[C@H]1CCOc2ccccc21)c1cnc2c(-c3cc(Cl)cc(Cl)c3)nccc2c1N1CCOCC1 [Example 1.9, N-[(4S)-chroman-4-yl]-8-(3,5-dichlorophenyl)-4-morpholino-1,7-naphthyridine-3-carboxamide] | < 0.1 | < 1 | – | – |
| CN(C)c1c(C(=O)N[C@H]2CCOc3ccccc32)cnc2c(-c3cc(F)cc(F)c3F)nccc12 [Example 1.50, N-[(4S)-chroman-4-yl]-4-(dimethylamino)-8-(2,3,5-trifluorophenyl)-1,7-naphthyridine-3-carboxamide] | < 0.1 | < 1 | – | > 90 |
| N#CCc1c(C(=O)N[C@H]2CCOc3ccccc32)cnc2c(-c3cc(Cl)cc(Cl)c3)nccc12 [Example 1.38, N-[(4S)-chroman-4-yl]-4-(cyanomethyl)-8-(3,5-dichlorophenyl)-1,7-naphthyridine-3-carboxamide] | < 0.1 | < 1 | – | – |
| CN(C)c1c(C(=O)N[C@@H]2CCOc3ccsc32)cnc2c(-c3cc(Cl)cc(Cl)c3)nccc12 [Example 1.47, 8-(3,5-dichlorophenyl)-N-[(7R)-6,7-dihydro-5H-thieno[3,2-b]pyran-7-yl]-4-(dimethylamino)-1,7-naphthyridine-3-carboxamide] | < 0.1 | < 1 | – | – |
